Experimental data: patent US10155738B2, “Methods for skin whitening using a gallotannin” (RHODE ISLAND BOARD OF EDUCATION, STATE OF RHODE ISLAND & …, priority 2014, dated 2018)

Columns and labels:
mushroom tyrosinase = test: Tyrosinase enzyme inhibition assay; format: biochemical; settings: pure compounds; mean ± S.D., triplicate independent experiments
Procedure: Maplifa was prepared by new methods developed in the laboratory. Briefly, leaves of red maple were dried and macerated in aqueous ethanol to obtain the crude extract which was then further purified on a resin column to remove chlorophyll and other plant pigments.

TRP-2 [1] = test: Protein expression by Western blot in B16F10 cells; format: cell-based, murine; settings: 10 μM, 72 hours
Procedure: Furthermore, the regulation of ginnalins on the protein expressions of melanogenesis related enzymes in B16F10 cells were evaluated by using Western blot. Expressions of melanin biosynthesis-related proteins, including MITF, TYR, TRP-1 and TRP-2 expression in B16F10 cells were measured by western blot. After incubation with ginnalins for 72 h, proteins from cells were resolved by SDS-PAGE and then transferred to polyvinylidene fluoride membrane. The membrane was blocked with 5% nonfat dry milk in Tris-buffered saline with Tween followed by incubation with primary antibodies overnight. Bands were visualized on X-ray film using an ECL detection kit (Amersham Biosciences, Piscataway, N.J.). A list of antibody, source, and dilution is listed in Supplementary material.

B16F10 cells [2] = test: MTS cell viability assay; format: cell-based, murine; settings: 72 h; for B16F10 cell viability: vs untreated control
Procedure: To further investigate the anti-melanogenic activities of ginnalinginnalins A-C, present in the Maplifa extract, cellular based assay were employed to measure the melanin content on murine melanoma B16F10 cells. In order to determine the non-toxic concentrations of ginnalinginnalins for cellular assays, cell viability on B16F10 cells were first evaluated by using MTS assay. The MTS assay was carried out as described previously with modifications. At the end of either 24, 48 or 72 h of treatment with test samples (in the concentration range of 1-100 μM for purified gallotannins and 6.25-200 μg/mL for Maplifa extract), 20 μL of the MTS reagent, in combination with the electron coupling agent, phenazine menthosulfate, were added to the wells and cells were incubated at 37° C. in a humidified incubator for 3 h. Absorbance at 490 nm was monitored with a spectrophotometer (SpectraMax M2, Molecular Devices Corp., operated by SoftmaxPro v.4.6 software, CA, USA) to obtain the number of cells relative to control populations. […] Data was presented as mean values±S.D. and were obtained from three separate experiments. Two-tailed unpaired student's t-test was used for statistical analysis of the data using the Office Excel 2010 software. A p value <0.05 was considered significant.
Murine melanoma B16F10 was purchased from the American Type Culture Collection (Rockville, Md.). Cells were cultured in Dulbecco's Modified Eagle Medium (DMEM) medium (Wilkem Scientific, R.I.) that was supplemented with 10% v/v fetal bovine serum, 1% v/v nonessential amino acids and 1% v/v antibiotic solution at 37° C. in 5% CO2. Samples were dissolved at a concentration of 50 mg/mL in dimethylsulfoxide (DMSO) as stock solution and then diluted to the desired final concentrations with growth medium. […]
Melanoma B16F10 cells were treated with serial concentrations of Maplifa (6.25, 12.5, 25, 50, 100, and 200 μg/mL) for 48 and 72 h. In addition, various concentrations (0, 5, 10, 25, and 50 μM) of ginnalinginnalins A-C for 72 h and the cell viabilities were determined by comparing with the untreated control group. […]

B16F10 cells [3] = test: Melanin content in B16F10 cells; format: cell-based, murine; settings: for melanin content compared to control group: 72 h
Procedure: The contents of biosynthesized melanin in melanoma B16F10 cells that treated with ginnalinginnalins A-C at serial concentrations were evaluated by comparing with the control group. The melanin content was determined using a modification of the method described by Liang and Ho. Briefly, B16F10 cells (5×10^4 cells/well) were first seeded in 24-well plates for 24 h and then medium was changed with new DMEM medium containing test samples of various concentrations. After 72 h incubation, the cells were harvested through trypsinization and washed with phosphate-buffered saline (PBS) twice. Then cells were lyzed with 1 N NaOH containing 10% DMSO and heated at 80° C. for 1 h. After samples cooled down to room temperature, the amount of melanin content was spectrophotometrically measured at 400 nm.

TRP-2 [4] = test: mRNA expression by real-time PCR in B16F10 cells; format: cell-based, murine; settings: 10 μM, 48 h and 72 h
Procedure: (§1) Melanin biosynthesis involves multi-step pathways. In order to determine the molecular mechanisms of inhibitory effects of ginnalins on melanin synthesis, expression levels of melanogenesis related genes, including MITF, TYR, TRP-1 and TRP-2, in B16F10 cells were analyzed by using RT-PCR. The B16F10 cells were planted in 6-well plates at a density of 2.0×10^5 cells/well. After being incubated for 24 h, cells were treated with 2 or 10 μM of ginnalins for 48 or 72 h. Total RNA was isolated from cells using TRIzol reagent (Invitrogen) according to the manufacturer's instructions. One microgram of total RNA was converted to single-stranded cDNA using oligo(dT)18 primers, and mRNA levels were quantified by quantitative real-time PCR using a Roche LightCycler detection system (Roche Applied Science, Mannheim, Germany). Samples were run by using SYBR Green and compared with levels of b2m rRNA as a reference housekeeping gene. Quantitative real-time PCR conditions were optimized for each gene using appropriate forward and reverse primers. The primers used are listed in Supplemental material. All oligonucleotides were synthesized by Invitrogen Inc., CA.

TYR = test: mRNA expression by real-time PCR in B16F10 cells; format: cell-based, murine; settings: 10 μM; for TYR mRNA expression: 48 h and 72 h
Procedure: as §1

TRP-1 = test: mRNA expression by real-time PCR in B16F10 cells; format: cell-based, murine; settings: 10 μM, 48 h and 72 h
Procedure: as §1

MITF = test: mRNA expression by real-time PCR in B16F10 cells; format: cell-based, murine; settings: 10 μM, 48 h and 72 h
Procedure: as §1

IC50 (mushroom tyrosinase) [µM] | SMILES | decrease of TRP-2 protein expression (TRP-2 [1]) [%] | B16F10 cell viability (B16F10 cells [2]; 25 μM) [%] | B16F10 cell viability (B16F10 cells [2]; 50 μM) [%] | toxicity to B16F10 cells (B16F10 cells [2]; low concentrations (5 and 10 μM)) | melanin content compared to control group (B16F10 cells [3]; 25 μM) [%] | effect on melanin content (B16F10 cells [3]; 50 μM) | melanin content compared to control group (B16F10 cells [3]; 50 μM) [%] | TRP-2 mRNA expression (TRP-2 [4]) | TYR mRNA expression (TYR) | TRP-1 mRNA expression (TRP-1) | MITF mRNA expression (MITF) | anti-melanogenic effects in B16F10 cells (B16F10 cells [3]) | decrease of TYR mRNA expression (TYR; 48 hours) [%] | decrease of TYR mRNA expression (TYR; 72 hours) [%]
63 ± 0.3 | OC[C@H]1O[C@@H](Oc2ccc(O)cc2)[C@H](O)[C@@H](O)[C@@H]1O [Arbutin, reference compound] |  |  |  |  |  |  |  |  |  |  |  |  |  | 
182 | O=C(OC[C@H]1OC[C@H](OC(=O)c2cc(O)c(O)c(O)c2)[C@@H](O)[C@@H]1O)c1cc(O)c(O)c(O)c1 [Ginnalin A] | 87.9 | 87.0 | 89.5 | non-toxic | 79.1 | clearly reduced | 56.7 | significantly reduced | significantly reduced | significantly reduced | significantly reduced |  |  | 
1050 | O=C(OC[C@H]1OC[C@H](O)[C@@H](O)[C@@H]1O)c1cc(O)c(O)c(O)c1 [Ginnalin B] | 92.0 |  |  |  | 90.0 |  | 90.0 | significantly decreased |  | significantly decreased | significantly decreased | only minor anti-melanogenic effects | 10.0 | 7.5
858 | O=C(O[C@H]1CO[C@H](CO)[C@@H](O)[C@@H]1O)c1cc(O)c(O)c(O)c1 [Ginnalin C] | 69.5 |  |  |  | 89.7 |  | 68.8 | only slightly decreased | only slightly decreased | did not reduce | significantly down-regulated | only minor anti-melanogenic effects |  | 
